Marks after values point to notes of the source that are not given here. Blank lines part the entries; values can stand above or below the compound they belong to.
What was measured:
[1] = in vitro; conditions: mouse, blood, Half-life T 1/2 in CD-1 mouse whole blood
Method: (§1) 1 mM stock solutions of the test compounds were prepared in DMSO, and a 1 mM stock solution of the reference compound propantheline was prepared in acetonitrile.
(§2) 4 µL of test compound stock solution (or reference compound stock solution) was added to 796 µL of pre-incubated whole blood (CD-1 mouse whole blood or human whole blood) at a final concentration of 5 µM. The final concentration of the solvent was 0.5%. At different time points (including 5 min, 15 min, 30 min, 60 min, and 120 min), a 50 µL aliquot of the whole blood containing the sample was added to a new tube and incubated in a 37 °C water bath with shaking at 60 rpm. The treatment was performed in duplicate. At designated time points, 300 µL of room-temperature quenching solution (a solution of acetonitrile containing internal standards (100 nM alprazolam, 500 nM labetalol, and 2 µM ketoprofen)) was added to the whole blood sample containing the sample to terminate the reaction. 50 µL of whole blood containing the sample was added to a new tube containing 300 µL of room-temperature quenching solution to prepare a sample at 0 min. All samples were vortexed for 5 min. The samples in the plate were centrifuged at 3220 g for 30 min at 4 °C to precipitate the proteins. 100 µL of the supernatant was transferred to a new 96-well plate containing 100 µL of water for LC-MS/MS analysis.
(§3) The peak area ratio was determined by using an extracted ion chromatogram. The proportion of remaining compound at each time point was calculated according to the following formula: Remaining proportion t min (%) = peak area ratio t min / peak area ratio 0 min × 100% [formula] • Peak area ratio t min: peak area ratio of reference compound to test compound at t min; • Peak area ratio 0 min: peak area ratio of reference compound to test compound at time zero.
(§4) The slope value was determined by linear regression on the curve of the natural logarithm of the remaining proportion of the test compound versus the incubation time.
(§5) Determination of in vitro half-life (in vitro t1/2) from the slope value: in vitro t1/2 = 0.693/k [formula] in the formula, k is the rate constant (k = -slope value)

[2] = in vitro; conditions: human, blood, Half-life T 1/2 in human whole blood
Method: as §1, §2, §3, §4, §5

[3] = human, microsomes, 1 µM, pH 7.4
Method: (§6) The metabolic stability of compounds disclosed herein in liver microsomes was determined using the following method.
(§7) Liver microsome source: Human liver microsome (Corning, 452117) • 2. Na2HPO4 (Tianjin Guangfu Fine Chemical Research Institute, 20180130) • 3. KH2PO4 (Tianjin Guangfu Fine Chemical Research Institute, 20180920) • 4. MgCl2 (Tianjin Guangfu Fine Chemical Research Institute, 20191216) • 5. NADPH (Solarbio, 1216C022) • 6. Positive control compound: verapamil (Sigma, MKBV4993V) • 7. AB Sciex Triple Quad 4000 liquid chromatography-mass spectrometry system
(§8) Preparation of 100 mM phosphate-buffered saline (PBS): 7.098 g Na2HPO4 was dissolved in 500 mL of purified water by sonication to give solution A. 3.400 g of KH2PO4 was dissolved in 250 mL of purified water by sonication to give solution B. Solution A was placed on a stirrer, and solution B was added slowly until the pH reached 7.4, so as to give a 100 mM PBS buffer. […] Preparation of reaction system The reaction system was prepared according to the table below.
(§9) The reaction system was pre-incubated in a 37 °C water bath for 10 min. 40 µL of 10 mM NADPH solution (in 100 mM phosphate-buffered saline) was added to the reaction system, with the final NADPH concentration being 1 mM. A negative control was prepared by replacing the NADPH solution with 40 µL of phosphate-buffered saline. The negative control was used to exclude the effect of the chemical stability of the compound itself. […] The reaction was initiated by adding 4 µL of 100 µM compound disclosed herein or positive control compound verapamil to the reaction system at a final concentration of 1 µM. […] After 0.5 min, 15 min, 30 min, 45 min, and 60 min of mixing well by using a vortex oscillator, 50 µ L of the incubated sample was taken out, and glacial acetonitrile containing an internal standard of 4 folds was added to terminate the reaction. The sample was centrifuged at 3,220 g for 45 min. 90 µL of the supernatant was transferred to a feeding plate after the centrifugation was completed, and 90 µL ultrapure water was added. The mixture was well mixed for LC-MS/MS analysis.
(§10) All data were calculated by using Microsoft Excel software. The peak areas were determined by using an extracted ion chromatogram. The in vitro half-life (T1/2) of the test compound was determined by linear fitting of the natural logarithm of the elimination proportion of the test compound over time. In vitro half-life (T1/2) was calculated by the slope k: in vitro T1/2 = 0.693/k [formula]
(§11) The in vitro intrinsic clearance (in vitro CLint, unit: µL/min/mg protein) was calculated using the following formula: in vitro CLint = k × volume of incubation solution/enzyme protein content; [formula]

[4] = system: AR; assay: AR antagonistic activity: AR / PSA ARE1 luciferase reporter gene assay in transfected LNCaP cells stimulated with 1 nM DHT; type: cell-based
Method: LNCaP cells were plated in a 6-well plate (Corning, 3516) at 8 × 10^5 cells/well.
Transfection reagents Lipo 3000 and P3000 (Lipofectamine™ 3000) and AR and PSA ARE1 reporter gene plasmids (Bio (Anhui) Co., Ltd.) (a total of 2.5 µg of plasmids, i.e., 1.25 µg of each plasmid, were added to each well) were left to stand and incubated at room temperature for 10 min, and then 250 µL of the above transfection reagents were added dropwise to each well containing cells.
The cells were washed with PBS, and the medium was replaced with a phenol red-free RPMI-1640 medium containing 5% carbon adsorption serum. The cells were re-plated onto a 96-well plate (Corning, 3603) according to the number of cells plated (2 × 10^4 cells/well).
After cell plating, the test compound (or DMSO or positive control) was added. After at least 30 min of incubation (incubator, 37 °C, 5% CO2), DHT (dihydrotestosterone) was added to the culture system at a final concentration of 1 nM. The culture system was then incubated in a carbon dioxide incubator. The final volume of the system in the plate was 100 µL.
Test compound: 10 mM stock solution, with a final concentration of 3.3 µM or 6.7 µM. Negative control: 0.1% DMSO. Positive control: 30 µM enzalutamide.
After the test compound (or DMSO or positive control) and DHT were co-incubated for 6 or 24 h, the luciferase signal was detected using the Vazyme Bright-Lite substrate. The medium was added at 70 µL/well, and the plate was shaken for 2 min, followed by reading of the luciferase signal.
Assay robustness was confirmed using the DMSO and low concentration control data: Ave_H = Ave (DMSO) [formula] Ave_L = Ave (30000nMenzalutamide) [formula] Inhibition rate (%) = (Ave_H−Sample)/(Ave_H−Ave_L) × 100% [formula] • Ave_H: the measurement of the negative control (0.1% DMSO); • Ave_L: the measurement of the positive control (30 µM enzalutamide); • Sample: the measurement of the test compound;

[5] = 5 µM
Method: as §1, §2, §3, §4, §5

[6] = 5 µM; remark: listed apart in the source
Method: as §1, §2, §3, §4, §5

[7] = in vitro; conditions: human, microsomes; for microsomal CLint at 1 µM: pH 7.4, In vitro Clint; for half-life at 1 µM: pH 7.4, In vitro T1/2
Method: as §6, §7, §8, §9, §10, §11

[8] = mouse, in vivo
Excerpt: Treatment: On day 3 after shaving, the mice were grouped for treatment. […] The control group received the vehicle. 12 mice were in each group.

[9] = system: C57BL/6 mice; assay: In vivo pharmacodynamic study: hair growth scoring in shaved telogen-phase mice; conditions: for Score (mean±SD): hair growth score 0-5, 0.5 wt% applied to shaved area twice daily
Excerpt: Vehicle: propylene glycol/ethanol (30:70, v/v)
Animal information: C57BL/6 mice (male, aged 6 weeks, about 18-20 g), purchased from Shanghai Lingchang Biotechnology Co., Ltd. The mice were bred in an SPF-level environment within independently ventilated cages. All animals had free access to a certified, commercial standard laboratory diet and drinking water.
Skin preparation: After 1-2 weeks of acclimation, the hairs in a 2 cm × 3 cm area of the back of the mice were shaved to confirm that the hairs of the mice were in the telogen phase (the skin was pink) and the skin was not damaged.
The control group received the vehicle. 12 mice were in each group.
The scoring criteria are as follows: • 0: no growth, with pink skin in the shaved area; • 1: the skin in the shaved area was gray (an increase of less than 20%); • 2: the skin in the shaved area was black (more than 20% but less than 40%); • 3: the skin in the shaved area was black with a little hair growth (more than 40% but less than 60%); • 4: the skin in the shaved area was black with partial hair growth (more than 60% but less than 80%); • 5: basically complete hair growth (80%-100% growth) in the shaved area.

[10] = incubation time: 24 h, test concentration: 3.3 µM, LNCaP cells, 1 nM DHT, normalised to 0.1% DMSO and 30 µM enzalutamide

Structure (SMILES): CCOC(=O)CCCC(C)(O)C(=O)Nc1cnc(C#N)c(C(F)(F)F)c1 (single isomer, unassigned) [Compound 005]
- half-life at 5 µM [1]: 3.54 min
- half-life at 5 µM [2]: 119 min
- In vitro Clint [3]: 670.7 µL/min/mg protein
- In vitro T1/2 [3]: 2.1 min
- AR antagonism (inhibition rate, %) ([4]; 6 h, 6.7 µM): 92.96^b %

Structure (SMILES): CC(O)(CCCCO)C(=O)Nc1cnc(C#N)c(C(F)(F)F)c1 (centres unmarked) [Compound 001, N-[6-cyano-5-(trifluoromethyl)pyridin-3-yl]-2,6-dihydroxy-2-methyl-hexanamide]
- AR antagonism (inhibition rate, %) [4, 10]: 87.89^a %

Structure (SMILES): CC(O)(CCO)C(=O)Nc1cnc(C#N)c(C(F)(F)F)c1 (centres unmarked) [Compound 002, N-[6-cyano-5-(trifluoromethyl)pyridin-3-yl]-2,4-dihydroxy-2-methylbutanamide]
- AR antagonism (inhibition rate, %) [4, 10]: 59.75^a %

Structure (SMILES): CSc1cc(NC(=O)C(C)(O)CCCC(=O)OC(C)(C)C)cnc1C#N (centres unmarked) [Compound 019, tert-butyl 6-((6-cyano-5-(methylthio)pyridin-3-yl)amino)-5-hydroxy-5-methyl-6-oxohexanoate]
- AR antagonism (inhibition rate, %) ([4]; incubation time: 6 h, test concentration: 6.7 µM, LNCaP cells, 1 nM DHT, normalised to 0.1% DMSO and 30 µM enzalutamide): 57.98^b %

Structure (SMILES): CCOC(=O)CCCC(C)(O)C(=O)Nc1cnc(C#N)c([Se]C)c1 (centres unmarked) [Compound 024, Ethyl 6-[(6-cyano-5-methylselanylpyridin-3-yl)amino]-5-hydroxy-5-methyl-6-oxohexanoate]
- AR antagonism (inhibition rate, %) [4, 10]: 88.18^a %

Structure (SMILES): CCOC(=O)CCCCC(C)(O)C(=O)Nc1cnc(C#N)c(C(F)(F)F)c1 (centres unmarked) [Compound 027, Ethyl 7-((6-cyano-5-(trifluoromethyl)pyridin-3-yl)amino)-6-hydroxy-6-methyl-7-oxoheptanoate]
- AR antagonism (inhibition rate, %) [4, 10]: 76.55^a %

Structure (SMILES): CCOC(=O)CCCC(C)(O)C(=O)Nc1ccc(C#N)c(SC)c1 (centres unmarked) [Compound 029, Ethyl 6-(4-cyano-3-methylthio-anilino)-5-hydroxy-5-methyl-6-oxohexanoate]
- AR antagonism (inhibition rate, %) [4, 10]: 98.41^a %

Structure (SMILES): CCOC(=O)CCCC(C)(O)C(=O)Nc1ccc(C#N)c(OC)c1 (centres unmarked) [Compound 030, Ethyl 6-(4-cyano-3-methoxy-anilino)-5-hydroxy-5-methyl-6-oxohexanoate]
- AR antagonism (inhibition rate, %) [4, 10]: 98.45^a %

Structure (SMILES): CSc1cc(NC(=O)C(O)CCCC(=O)OC(C)C)cnc1C#N (centres unmarked) [Compound 032, Isopropyl 6-((6-cyano-5-(methylthio)pyridin-3-yl)amino)-5-hydroxy-6-oxohexanoate]
- AR antagonism (inhibition rate, %) [4, 10]: 92.25^a %

The next lines start with results.

- Half-life T 1/2 in human whole blood [5]: 183.42 min
- In vitro Clint [3]: 199.5 µL/min/mg protein
- In vitro T1/2 [3]: 6.9 min
- Half-life T 1/2 in CD-1 mouse whole blood [6]: 3.61 min
Structure (SMILES): CCOC(=O)CCCC(C)(O)C(=O)Nc1cnc(C#N)c(C(F)(F)F)c1 (single isomer, unassigned) [Compound 006]
- AR antagonism (inhibition rate, %) ([4]; 24 h, 3.3 µM): 88.13^a %
- AR antagonism (inhibition rate, %) ([4]; 24 h, 6.7 µM): 90.51^c %

- microsomal CLint at 1 µM [7]: 226 µL/min/mg
- half-life at 1 µM [7]: 6.1 min
- half-life at 5 µM [1]: 2.7 min
- half-life at 5 µM [2]: 82.7 min
Structure (SMILES): COC(=O)CCCC(C)(O)C(=O)Nc1cnc(C#N)c(C(F)(F)F)c1 (single isomer, unassigned) [Compound 007]
- AR antagonism (inhibition rate, %) ([4]; 24 h, 6.7 µM): 100.00^c %

- Half-life T 1/2 in human whole blood [5]: 141.44 min
- In vitro Clint [3]: 131.2 µL/min/mg protein
- In vitro T1/2 [3]: 10.6 min
- Half-life T 1/2 in CD-1 mouse whole blood [6]: 3.94 min
Structure (SMILES): COC(=O)CCCC(C)(O)C(=O)Nc1cnc(C#N)c(C(F)(F)F)c1 (single isomer, unassigned) [Compound 008]
- AR antagonism (inhibition rate, %) ([4]; 6 h, 6.7 µM): 92.41^b %

- microsomal CLint at 1 µM [7]: 234 µL/min/mg
- half-life at 1 µM [7]: 5.9 min
- half-life at 5 µM [1]: 10 min
- half-life at 5 µM [2]: 210 min
Structure (SMILES): CC(C)OC(=O)CCCC(C)(O)C(=O)Nc1cnc(C#N)c(C(F)(F)F)c1 (single isomer, unassigned) [Compound 009]
- AR antagonism (inhibition rate, %) ([4]; 24 h, 6.7 µM): 97.66^c %

- Half-life T 1/2 in human whole blood [5]: 351.20 min
- In vitro Clint [3]: 124.8 µL/min/mg protein
- In vitro T1/2 [3]: 11.1 min
- Half-life T 1/2 in CD-1 mouse whole blood [6]: 5.97 min
Structure (SMILES): CC(C)OC(=O)CCCC(C)(O)C(=O)Nc1cnc(C#N)c(C(F)(F)F)c1 (single isomer, unassigned) [Compound 010]
- signs of erythema, dehiscence, desquamation on the skin [8]: no signs of erythema, dehiscence, desquamation
- AR antagonism (inhibition rate, %) ([4]; 24 h, 6.7 µM): 85.37^c %
- Score (mean±SD) ([9]; Day 0): 0
- Score (mean±SD) ([9]; Day 10): 0.2±0.4
- Score (mean±SD) ([9]; Day 13): 0.2±0.4
- Score (mean±SD) ([9]; Day 16): 0.3±0.5
- Score (mean±SD) ([9]; Day 20): 0.7±0.7
- Score (mean±SD) ([9]; Day 23): 0.8±0.6
- Score (mean±SD) ([9]; Day 27): 1.1±0.7
- Score (mean±SD) ([9]; Day 32, ** P < 0.01 vs. vehicle control group): 1.9±0.7**
- effect on hair growth ([9]; mice with telogen hair growth, 0.5 wt%, BID topically at 20 µL/cm^2, P < 0.01 from day 32): significant promoting effect on hair growth

- microsomal CLint at 1 µM [7]: 487 µL/min/mg
- half-life at 1 µM [7]: 2.8 min
- half-life at 5 µM [1]: < 0.5 min
- half-life at 5 µM [2]: 118 min
Structure (SMILES): CCOC(=O)CCCC(C)(O)C(=O)Nc1cnc(C#N)c(SC)c1 (single isomer, unassigned) [Compound 013]

- Half-life T 1/2 in human whole blood [5]: 164.02 min
- In vitro Clint [3]: 270.78 µL/min/mg protein
- In vitro T1/2 [3]: 5.12 min
- Half-life T 1/2 in CD-1 mouse whole blood [6]: 4.34 min
Structure (SMILES): COC(=O)CCCC(C)(O)C(=O)Nc1cnc(C#N)c(SC)c1 (single isomer, unassigned) [Compound 015]
- AR antagonism (inhibition rate, %) ([4]; 24 h, 3.3 µM): 92.46^a %

- Half-life T 1/2 in human whole blood [5]: 70.19 min
- In vitro Clint [3]: 1216.15 µL/min/mg protein
- In vitro T1/2 [3]: 1.14 min
- Half-life T 1/2 in CD-1 mouse whole blood [6]: 9.44 min
Structure (SMILES): COC(=O)CCCC(C)(O)C(=O)Nc1cnc(C#N)c(SC)c1 (single isomer, unassigned) [Compound 016]

- microsomal CLint at 1 µM [7]: 243 µL/min/mg
- half-life at 1 µM [7]: 5.7 min
- half-life at 5 µM [1]: 4.64 min
- half-life at 5 µM [2]: 206 min
Structure (SMILES): CSc1cc(NC(=O)C(C)(O)CCCC(=O)OC(C)C)cnc1C#N (single isomer, unassigned) [Compound 017]

- Half-life T 1/2 in human whole blood [5]: 194.81 min
- In vitro Clint [3]: 247.8 µL/min/mg protein
- In vitro T1/2 [3]: 5.6 min
- Half-life T 1/2 in CD-1 mouse whole blood [6]: 4.93 min
Structure (SMILES): CSc1cc(NC(=O)C(C)(O)CCCC(=O)OC(C)C)cnc1C#N (single isomer, unassigned) [Compound 018]
- AR antagonism (inhibition rate, %) ([4]; 24 h, 6.7 µM): 63.12^c %

- Half-life T 1/2 in human whole blood [5]: 89.49 min
- Half-life T 1/2 in CD-1 mouse whole blood [6]: 1.13 min
Structure (SMILES): CCOC(=O)CCC[C@](C)(O)C(=O)Nc1cnc(C#N)c(SC)c1 [Compound 014, ethyl (6S)/(6R)-6-((6-cyano-5-(methylthio)pyridin-3-yl)amino)-5-hydroxy-5-methyl-6-oxohexanoate]
- AR antagonism (inhibition rate, %) ([4]; incubation time: 24 h, test concentration: 6.7 µM, LNCaP cells, 1 nM DHT, normalised to 0.1% DMSO and 30 µM enzalutamide): 64.39^c %
